Measured values from EP2607478A1, “Phenanthroline treated MSC” (Universiteit Twente, priority 2011, dated 2013).

Key:
[1] = system: MSCs; experiment: Protein expression analysis (Luminex assay) of treated MSCs; type: cell-based, Human; details: primary MSCs, 2 days; for VEGF secretion / secretion of IL-8: 150 µM DFO or 200 µM PHE, measured in cell lysates; for secretion of IL-8: basic 15-25 pg/mL
Description: MSCs were seeded at 5000 cells/cm^2 in T25 flasks. […] After 2 days, cells were lysed with 250 µL RIPA buffer with addition of protease/phosphatase inhibitors (Roche). Total protein concentrations were determined using a BCA kit (Pierce) and 10 µg of total protein was used to determine concentrations of VEGF, IL-8, basic fibroblast growth factor (bFGF), […] stimulating factor (G-CSF) and epidermal growth factor (EGF) using a Luminex assay (Invitrogen) according to the manufacturer's protocol. Briefly, cells and standards were incubated with fluorescent beads, followed by incubation with a biotinylated detection antibody. After incubation with streptavidin-R-Phycoerythrin and washing, both the fluorescence of the coupled beads and the R-phycoerythrin were measured using a Luminex® FlexMap™.

[2] = system: male C57/BL6 mice; experiment: In vivo murine matrigel plug assay; details: matrigel plug with DFO (150 uM) or PHE (200 uM), subcutaneous, 7 days, versus PBS
Description: In vivo angiogenesis analysis was performed using a matrigel plug assay in male C57/BL6 mice (age 8 weeks)(Charles River). Growth factor reduced matrigel (0.5 ml) (BD Biosciences) was injected into the subcutaneous space on the dorsal side of mice on both the left and right flank. […] Mice were sacrificed 7 days post-implantation. Matrigel plugs were excised and processed for histological analysis. Paraffin sections (5 um) were stained with Hematoxylin, Phloxine and Saffron (HPS) or anti-CD31 (PECAM, Abcam, Cambridge, UK). Vascular ingrowth was scored in a double blinded fashion and quantified using the following method: every individual section was scored for the degree of ingrowth, using five different categories of ingrowth (1=minimal ingrowth at the border of the plug, 5=capillary ingrowth throughout the total plug), and the mean ingrowth score per group was defined (6 sections per plug, 7 mice per group). The endothelial nature of the infiltrating cells was confirmed by the CD31 staining,
Data was analyzed using one-way ANOVA followed by Tukey's multiple comparison's test (P<0,05). For the analysis of the ingrowth in the matrigel plug statistical analysis was performed using ANOVA and unpaired T test.

[3] = system: MSCs; experiment: Gene expression analysis by real-time qPCR in treated MSCs; type: cell-based, Human; details: for expression of Il-8, VEGF, KDR and Foxc2: 2 days treatment, medium refreshed, 2 more days in basic medium (Figure 8); for VEGF expression: after 2 days of treatment and 2 more days of incubation with fresh medium (Figure 8)
Description: MSCs were seeded in triplicate in 6-well plates at 5000 cells/cm^2 and allowed to attach for 10-15 hours in proliferation medium. Upon reaching near confluency, cells were treated as described above. After 2 days of treatment and 2 subsequent days of incubation with fresh medium, cells were lysed immediately with TRIzol. RNA was isolated using a Bioke RNA II nucleospin RNA isolation kit (Machery Nagel) and RNA concentrations were measured using an ND100 spectrophotometer (Nanodrop technologies, USA). cDNA was synthesized from 100 ng of RNA, using iScript (BioRad) according to the manufacturer's protocol. For qualitative PCR, a master mix, containing distilled water, forward primer, reverse primer (Sigma Genosys), BSA, and SYBR green I mix (all from Invitrogen) was prepared. Real-time qPCR was performed in a Light-Cycler (Roche). Light-Cycler data was analyzed using the fit points method of Light-Cycler software. The baseline was set at the lower log-linear part above baseline noise and the crossing […] (Ct value) was determined. Ct values were normalized to the 18S housekeeping gene and delta Ct (Ct, control ― Ct, sample) was used to calculate the upregulation in gene expression (53).

[4] = system: immortalized MSC cell line; experiment: Screen for hypoxia mimics with hypoxia response element reporter in immortalized MSC; type: cell-based; details: clonally expanded immortalized MSC cell line
Excerpt: Because previous screening methods were based mostly on cancer cells and the results thereof can not necessarily be extrapolated to MSC, a novel screening method was developed, based on an immortalized MSC. Using this screening method, we quickly screened a large panel of potential compounds for effects on MSC. Such screening method is useful for screening a large panel of compound for their ability to modulate (i.e. increase or decrease) an angiogenic capacity of a MSC. […]
It is possible to use for instance an (immortalized) MSC and transfect it with a HRE-luciferase construct as described in Said et al (56) or with a 5HRE-ODD-luc construct described in Saha et al (57). Detection of transcription of the reporter gene is then easily achieved by measuring luciferase activity (luminescence) of the cells after contacting said MSC with the compound. […] As a consequence, reporter gene expression is increased, which can be detected, in case of luciferase, by measuring an increase in luminescence in these cells. Vice versa, decreased luminescence is indicative for a compound able to inhibit angiogenesis, which compound may subsequently be used for anti-angiogenic therapy, for instance in anti-tumor therapy. […]

[5] = 200 µM PHE, compared to DFO and hypoxia

SMILES | VEGF secretion [1] | secretion of IL-8 [1] | capillary ingrowth [2] | expression of Il-8, VEGF, KDR and Foxc2 [3] | VEGF expression [3] | ability to mimic hypoxia in MSCs [4] | secretion of basic fibroblast growth factor (bFGF) [1, 5] | secretion of growth-colony stimulating factor (G-CSF) [1, 5]
CC(=O)N(O)CCCCCNC(=O)CCC(=O)N(O)CCCCCNC(=O)CCC(=O)N(O)CCCCCN [DFO, reference compound] | 140 pg/mL | 15 to 25 pg/mL | significantly increased capillary ingrowth | returned to basal levels | comparable to non-treated cells |  |  | 
c1cnc2c(c1)ccc1cccnc12 [PHE, 1, 10-phenanthroline] | 65 pg/mL | 300 to 500 pg/mL | significantly increased capillary ingrowth | still significantly increased | still highly expressed | able to mimic hypoxia in MSCs | reduced | reduced
